# Tested on: genes regulated by the Gcn4 transcription factor
# Experiment: Transcript response (DNA microarray) to a titration series of FK506, genes of the Gcn4 geneset
# Format: cell-based, Saccharomyces cerevisiae
# Method: Yeast (Saccharomyces cerevisiae, Strain YPH499, see, Sikorski and Hieter, 1989, A system of shuttle vectors and yeast host strains designated for efficient manipulation of DNA in Saccharomyces cerevisiae, Genetics 122:19-27) cells were grown in YAPD at 30° C. to an OD600 of 1.0 (±0.2), and total RNA prepared by breaking cells in phenol/chloroform and 0.1% SDS by standard procedures (Ausubel et al., 1995, Current Protocols in Molecular Biology, Greene Publishing and Wiley-Interscience, New York, Ch. 13). Poly(A)^+ RNA was selected by affinity chromatography on oligo-dT cellulose (New England Biolabs) essentially as described in Sambrook et al. (Molecular Cloning—A Laboratory Manual (2nd Ed.), Vol. 1, Cold Spring Harbor Laboratory, Cold Spring Harbor, N.Y., 1989). First strand cDNA synthesis was carried out with 2 μg poly(A)^+ RNA and SuperScript™ II reverse transcriptase (Gibco-BRL) according to the manufacturer's instructions with the following modifications. Deoxyribonucleotides were present at the following concentrations: dA, dG, and dC at 500 μM each, dT at 100 μM and either Cy3-dUTP or Cy5-dUTP (Amersham) at 100 μM. cDNA synthesis reactions were carried out at 42-44° C. for 90 minutes, after which RNA was degraded by the addition of 2 units of RNAse H, and the cDNA products were purified by two successive rounds of centrifugation dialysis using MICROCON-30 microconcentrators (Amicon) according to the manufacturer's recommendations.
# Double-stranded DNA polynucleotides corresponding in sequence to each ORF in the S. cerevisiae genome encoding a polypeptide greater than 99 amino acids (based on the published yeast genomic sequence, e.g., Goffeau et al., 1996, Science 274:546-567) are made by polymerase chain reaction (PCR) amplification of yeast genomic DNA. Two PCR primers are chosen internal to each of the ORFs according to two criteria: (i) the amplified fragments are 300-800 bp and (ii) none of the fragments have a section of more than 10 consecutive nucleotides of sequence in common. Computer programs are used to aid in the design of the PCR primers. Amplification is carried out in 96 well microtitre plates. The resulting DNA fragments are printed onto glass microscope slides using the method of Shalon et al., 1996, Genome Research 6:639-645.
# Fluorescently-labeled cDNAs (2-6 μg) are resuspended in 4×SSC plus 1 μg/μl tRNA as carrier and filtered using […] filters (Millipore, Bedford, Mass.). SDS is added to 0.3%, prior to heating to 100° C. for 2 minutes. Probes are cooled and immediately hybridized to the microarrays produced as described in Example 6.2, for 4 hours at 65° C. Non-hybridized probe is removed by washing in 1×SSC plus 0.1% SDS at ambient temperature for 1-2 minutes. Microarrays are scanned with a fluorescence laser-scanning device as previously described (Schena et al., 1995, Science 270:467-470; Schena et al., 1995, Proc. Natl. Acad. Sci. USA 93:[…]) and the results (including the positions of perturbations) are recorded.
# Geneset number 3 in the clustering analysis result of FIG. 6 involves genes regulated by the Gcn4 transcription factor. This was verified via the literature and via multiple sequence alignment analysis of the regulatory regions 5′ to the individual genes (Stormo and Hartzell, 1989, Identifying protein binding sites from unaligned DNA fragments, Proc Natl Acad Sci 86:1183-1187; Hertz and Stormo, 1995, Identification of consensus patterns in unaligned DNA and protein sequences: a large-deviation statistical basis for penalizing gaps, Proc of 3rd Intl Conf on Bioinformatics and Genome Research, Lim and Cantor, eds., World Scientific Publishing Co., Ltd. Singapore, pp. 201-216). […] These 20 were used to define a geneset. Response profiles to a titration series of the drug FK506, which is known to hit this pathway at higher concentrations, were projected onto this geneset. […]
smiles,measurement,setting,value
C=CC[C@@H]1/C=C(\C)C[C@H](C)C[C@H](OC)[C@H]2O[C@@](O)(C(=O)C(=O)N3CCCC[C@H]3C(=O)O[C@H](/C(C)=C/[C@@H]3CC[C@@H](O)[C@H](OC)C3)[C@H](C)[C@@H](O)CC1=O)[C@H](C)C[C@@H]2OC [FK506],Geneset Average response (projected response of the 20-gene Gcn4 geneset),FK506 7.5 μg/ml,7.8209 standard deviations of Log10(Expression Ratio)
same,Response of gene ARG1,FK506 7.5 μg/ml,4.2215 standard deviations of Log10(Expression Ratio)
same,Response of gene ARG4,FK506 7.5 μg/ml,3.2973 standard deviations of Log10(Expression Ratio)
same,"Response of gene ARG5,6",FK506 7.5 μg/ml,2.7433 standard deviations of Log10(Expression Ratio)
same,Response of gene ARO3,FK506 7.5 μg/ml,0.6059 standard deviations of Log10(Expression Ratio)
same,Response of gene ECM13,FK506 7.5 μg/ml,2.5343 standard deviations of Log10(Expression Ratio)
same,Response of gene HIS3,FK506 7.5 μg/ml,1.8024 standard deviations of Log10(Expression Ratio)
same,Response of gene HIS5,FK506 7.5 μg/ml,2.8414 standard deviations of Log10(Expression Ratio)
same,Response of gene MET16,FK506 7.5 μg/ml,0.1621 standard deviations of Log10(Expression Ratio)
same,Response of gene NCE3,FK506 7.5 μg/ml,1.569 standard deviations of Log10(Expression Ratio)
same,Response of gene PCL5,FK506 7.5 μg/ml,2.2898 standard deviations of Log10(Expression Ratio)
same,Response of gene SNO1,FK506 7.5 μg/ml,2.538 standard deviations of Log10(Expression Ratio)
same,Response of gene SNZ1,FK506 7.5 μg/ml,2.538 standard deviations of Log10(Expression Ratio)
same,Response of gene SSU1,FK506 7.5 μg/ml,0.5059 standard deviations of Log10(Expression Ratio)
same,Response of gene YBR047W,FK506 7.5 μg/ml,1.1596 standard deviations of Log10(Expression Ratio)
same,Response of gene YER024W,FK506 7.5 μg/ml,1.1526 standard deviations of Log10(Expression Ratio)
same,Response of gene YGL117W,FK506 7.5 μg/ml,2.699 standard deviations of Log10(Expression Ratio)
same,Response of gene YGL184C,FK506 7.5 μg/ml,−0.4586 standard deviations of Log10(Expression Ratio)
same,Response of gene YHR029C,FK506 7.5 μg/ml,2.3813 standard deviations of Log10(Expression Ratio)
same,Response of gene YMR195W,FK506 7.5 μg/ml,0.8879 standard deviations of Log10(Expression Ratio)
same,Geneset Average response (projected response of the 20-gene Gcn4 geneset),FK506 16 μg/ml,19.9913 standard deviations of Log10(Expression Ratio)
same,Response of gene ARG1,FK506 16 μg/ml,4.711 standard deviations of Log10(Expression Ratio)
same,Response of gene ARG4,FK506 16 μg/ml,4.5135 standard deviations of Log10(Expression Ratio)
same,"Response of gene ARG5,6",FK506 16 μg/ml,6.0457 standard deviations of Log10(Expression Ratio)
same,Response of gene ARO3,FK506 16 μg/ml,4.0553 standard deviations of Log10(Expression Ratio)
same,Response of gene CPA2,FK506 16 μg/ml,4.1093 standard deviations of Log10(Expression Ratio)
same,Response of gene ECM13,FK506 16 μg/ml,4.8689 standard deviations of Log10(Expression Ratio)
same,Response of gene HIS3,FK506 16 μg/ml,4.6461 standard deviations of Log10(Expression Ratio)
same,Response of gene HIS5,FK506 16 μg/ml,6.0052 standard deviations of Log10(Expression Ratio)
same,Response of gene MET16,FK506 16 μg/ml,3.3857 standard deviations of Log10(Expression Ratio)
same,Response of gene NCE3,FK506 16 μg/ml,5.5819 standard deviations of Log10(Expression Ratio)
same,Response of gene PCL5,FK506 16 μg/ml,5.4688 standard deviations of Log10(Expression Ratio)
same,Response of gene SNO1,FK506 16 μg/ml,5.8877 standard deviations of Log10(Expression Ratio)
same,Response of gene SNZ1,FK506 16 μg/ml,5.8877 standard deviations of Log10(Expression Ratio)
same,Response of gene SSU1,FK506 16 μg/ml,4.6461 standard deviations of Log10(Expression Ratio)
same,Response of gene YBR047W,FK506 16 μg/ml,3.3107 standard deviations of Log10(Expression Ratio)
same,Response of gene YER024W,FK506 16 μg/ml,4.6342 standard deviations of Log10(Expression Ratio)
same,Response of gene YGL117W,FK506 16 μg/ml,4.9827 standard deviations of Log10(Expression Ratio)
same,Response of gene YGL184C,FK506 16 μg/ml,2.7166 standard deviations of Log10(Expression Ratio)
same,Response of gene YHR029C,FK506 16 μg/ml,5.0446 standard deviations of Log10(Expression Ratio)
same,Response of gene YMR195W,FK506 16 μg/ml,4.0983 standard deviations of Log10(Expression Ratio)
same,Geneset Average response (projected response of the 20-gene Gcn4 geneset),FK506 50 μg/ml,21.3315 standard deviations of Log10(Expression Ratio)
same,Response of gene ARG1,FK506 50 μg/ml,5.7996 standard deviations of Log10(Expression Ratio)
same,Response of gene ARG4,FK506 50 μg/ml,5.8858 standard deviations of Log10(Expression Ratio)
same,"Response of gene ARG5,6",FK506 50 μg/ml,5.2406 standard deviations of Log10(Expression Ratio)
same,Response of gene ARO3,FK506 50 μg/ml,5.7035 standard deviations of Log10(Expression Ratio)
same,Response of gene CPA2,FK506 50 μg/ml,4.0958 standard deviations of Log10(Expression Ratio)
same,Response of gene ECM13,FK506 50 μg/ml,3.1882 standard deviations of Log10(Expression Ratio)
same,Response of gene HIS3,FK506 50 μg/ml,5.2637 standard deviations of Log10(Expression Ratio)
same,Response of gene HIS5,FK506 50 μg/ml,4.9557 standard deviations of Log10(Expression Ratio)
same,Response of gene MET16,FK506 50 μg/ml,4.855 standard deviations of Log10(Expression Ratio)
same,Response of gene NCE3,FK506 50 μg/ml,3.3928 standard deviations of Log10(Expression Ratio)
same,Response of gene PCL5,FK506 50 μg/ml,5.2339 standard deviations of Log10(Expression Ratio)
same,Response of gene SNO1,FK506 50 μg/ml,5.5665 standard deviations of Log10(Expression Ratio)
same,Response of gene SNZ1,FK506 50 μg/ml,5.5665 standard deviations of Log10(Expression Ratio)
same,Response of gene SSU1,FK506 50 μg/ml,3.5782 standard deviations of Log10(Expression Ratio)
same,Response of gene YBR047W,FK506 50 μg/ml,4.248 standard deviations of Log10(Expression Ratio)
same,Response of gene YER024W,FK506 50 μg/ml,5.8934 standard deviations of Log10(Expression Ratio)
same,Response of gene YGL117W,FK506 50 μg/ml,5.9066 standard deviations of Log10(Expression Ratio)
same,Response of gene YGL184C,FK506 50 μg/ml,5.3106 standard deviations of Log10(Expression Ratio)
same,Response of gene YHR029C,FK506 50 μg/ml,5.5781 standard deviations of Log10(Expression Ratio)
same,Response of gene YMR195W,FK506 50 μg/ml,4.6141 standard deviations of Log10(Expression Ratio)

# From patent US6468476B1, “Methods for using-co-regulated genesets to enhance detection and classification of gene expression patterns” (Rosetta Inpharmatics, Inc., priority 1998, dated 2002)
